Molecular target: Cation-independent mannose-6-phosphate receptor (Homo sapiens, UniProt P11717)
Test: Binding of the M6P Analogs of the Invention with CI-M6PR: 96-Well plates (Maxisorp Nunc) are incubated overnight at 4° C. with 200 μl of PMP (pentamannose 6-phosphate) at the concentration of 200 μg·ml−1, in carbonate buffer (NaHCO3/Na2CO3 at 0.1M, pH 9.6). The following day, the solution containing the residual PMP is discarded and the wells are saturated, for 1 h at ambient temperature, with 360 μl of 1% gelatin (Type A from Porcine Skin) diluted in PBS (1.9 mM NaH2PO4, 8.1 mM Na2PO4 and 154 mM NaCl, pH 7.4). The wells are then rinsed five times with PBS to which 0.2% gelatin has been added. All the washes and also the dilutions are carried out in the solution of PBS to which 0.2% gelatin has been added. The M6P analogs to be tested at the various concentrations (from 10−2 to 10−7 M) are pre-incubated in the presence of pre-biotinylated CI-M6PR (M6PRb) ([…]) for 20 min, then 200 μl of the mixture are incubated in the wells for 2 h, at ambient temperature. After three washes, the wells are incubated for 1 h with a streptavidin-peroxidase solution (250 μl per well; 3.10−8 M). After three more washes, 200 μl of a solution of OPD (o-phenylenediamine, 1 mg·ml−1 in citrate buffer, pH 5.0, and 1 μl 30% H2O2.ml−1; Sigma Aldrich) are added. […]

Sequence of Cation-independent mannose-6-phosphate receptor (P11717 whole entry): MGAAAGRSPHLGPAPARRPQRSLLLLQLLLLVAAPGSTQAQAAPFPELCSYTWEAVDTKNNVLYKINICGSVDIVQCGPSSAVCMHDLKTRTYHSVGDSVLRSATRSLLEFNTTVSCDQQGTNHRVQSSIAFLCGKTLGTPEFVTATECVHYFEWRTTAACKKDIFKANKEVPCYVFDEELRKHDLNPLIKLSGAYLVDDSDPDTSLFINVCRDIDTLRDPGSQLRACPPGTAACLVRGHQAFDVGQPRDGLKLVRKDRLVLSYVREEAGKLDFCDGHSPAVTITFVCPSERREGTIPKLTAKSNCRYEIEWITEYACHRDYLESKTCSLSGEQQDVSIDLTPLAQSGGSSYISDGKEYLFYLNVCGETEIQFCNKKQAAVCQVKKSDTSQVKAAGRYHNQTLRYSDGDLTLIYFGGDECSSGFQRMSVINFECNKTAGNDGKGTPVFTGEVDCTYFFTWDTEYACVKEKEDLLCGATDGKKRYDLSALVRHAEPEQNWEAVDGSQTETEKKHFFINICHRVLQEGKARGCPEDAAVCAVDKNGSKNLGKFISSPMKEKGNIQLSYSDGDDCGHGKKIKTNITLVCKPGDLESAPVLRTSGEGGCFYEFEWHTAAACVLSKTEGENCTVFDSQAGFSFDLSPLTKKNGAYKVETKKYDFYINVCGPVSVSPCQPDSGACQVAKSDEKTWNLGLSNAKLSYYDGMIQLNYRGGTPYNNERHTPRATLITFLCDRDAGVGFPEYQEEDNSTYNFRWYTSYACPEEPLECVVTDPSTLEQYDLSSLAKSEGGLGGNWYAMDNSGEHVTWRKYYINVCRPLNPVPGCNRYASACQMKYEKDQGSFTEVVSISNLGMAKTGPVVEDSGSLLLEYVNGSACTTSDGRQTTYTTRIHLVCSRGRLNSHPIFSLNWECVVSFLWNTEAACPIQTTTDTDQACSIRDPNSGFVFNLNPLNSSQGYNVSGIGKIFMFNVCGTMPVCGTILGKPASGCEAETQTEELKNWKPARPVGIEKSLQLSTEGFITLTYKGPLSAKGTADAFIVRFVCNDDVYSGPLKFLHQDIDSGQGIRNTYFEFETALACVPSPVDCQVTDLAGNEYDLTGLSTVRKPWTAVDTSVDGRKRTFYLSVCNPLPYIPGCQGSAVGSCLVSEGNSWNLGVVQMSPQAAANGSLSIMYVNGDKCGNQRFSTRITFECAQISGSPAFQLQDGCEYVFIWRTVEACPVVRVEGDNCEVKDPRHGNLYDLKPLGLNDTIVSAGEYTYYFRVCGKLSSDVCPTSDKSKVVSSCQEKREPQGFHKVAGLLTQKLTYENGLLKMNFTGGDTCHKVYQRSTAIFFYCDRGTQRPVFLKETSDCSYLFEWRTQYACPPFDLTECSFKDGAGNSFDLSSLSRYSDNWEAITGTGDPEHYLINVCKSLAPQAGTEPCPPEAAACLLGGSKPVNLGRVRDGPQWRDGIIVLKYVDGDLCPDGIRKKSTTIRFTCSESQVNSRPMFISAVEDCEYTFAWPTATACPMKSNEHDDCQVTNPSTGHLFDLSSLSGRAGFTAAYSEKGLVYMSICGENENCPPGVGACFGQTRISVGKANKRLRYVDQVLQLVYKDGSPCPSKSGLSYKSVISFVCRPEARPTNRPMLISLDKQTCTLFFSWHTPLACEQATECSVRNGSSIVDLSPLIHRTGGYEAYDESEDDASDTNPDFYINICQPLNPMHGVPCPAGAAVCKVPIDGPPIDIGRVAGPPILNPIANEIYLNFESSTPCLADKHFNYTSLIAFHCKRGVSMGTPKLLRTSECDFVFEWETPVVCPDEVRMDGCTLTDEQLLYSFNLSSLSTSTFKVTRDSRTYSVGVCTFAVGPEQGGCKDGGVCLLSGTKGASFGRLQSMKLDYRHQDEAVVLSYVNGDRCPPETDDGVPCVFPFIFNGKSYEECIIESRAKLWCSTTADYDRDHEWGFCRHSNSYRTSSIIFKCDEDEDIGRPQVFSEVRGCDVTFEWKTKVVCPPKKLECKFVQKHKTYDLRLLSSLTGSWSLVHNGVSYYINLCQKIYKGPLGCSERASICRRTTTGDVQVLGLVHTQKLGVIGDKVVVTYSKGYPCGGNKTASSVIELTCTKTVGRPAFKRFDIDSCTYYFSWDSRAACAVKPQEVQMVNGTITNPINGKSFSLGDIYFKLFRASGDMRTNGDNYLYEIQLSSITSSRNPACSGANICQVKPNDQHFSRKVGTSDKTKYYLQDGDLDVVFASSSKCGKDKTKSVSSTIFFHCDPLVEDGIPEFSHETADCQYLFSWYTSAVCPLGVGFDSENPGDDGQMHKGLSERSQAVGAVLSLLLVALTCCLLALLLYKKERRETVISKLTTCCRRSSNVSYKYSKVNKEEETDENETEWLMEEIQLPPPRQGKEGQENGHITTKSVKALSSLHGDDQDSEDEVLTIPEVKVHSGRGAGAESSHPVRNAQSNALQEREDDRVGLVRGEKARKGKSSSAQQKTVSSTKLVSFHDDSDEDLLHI

`NCCO[C@H]1OC(CO)[C@@H](O)[C@H](O)C1O[C@H]1OC(CCP(=O)(O)O)[C@@H](O)[C@H](O)C1O` (stereo partly specified) showed an IC50 of 5 µM.

From ChEMBL document CHEMBL5728232, “Multi-functionalized polysaccharide compounds and use thereof for targeting the cation-independent mannose 6-phosphate receptor” (2021)
